Measured values reported in PMC8605905 (Oxidative Medicine and Cellular Longevity, 2021).
“Also recorded” adds a separate entry of the source. Where two headings read alike, the source gives them in different places.

Tests used:
[1] = system: caspase 1; assay: Caspase 1 activity in Aβ-GFP cells; type: cell-based, Human; conditions: 5 μM, vs untreated cells
Description: Aβ-GFP or ∆K280 tauRD-DsRed SH-SY5Y cells were seeded into 6-well plates (5 × 10^5/well) and treated with retinoic acid, coumarin-chalcone derivatives, and doxycycline as previously described. On day 8, cells were collected and lysates were prepared with six freeze/thaw cycles. The supernatant was collected by centrifugation, followed by measurement of the caspase 1 activity in 50 μg aliquots of cell extract using the ICE fluorometric assay kit (BioVision, Milpitas, CA, USA). Following incubation of the mixture at 37°C for 2 h, fluorescence was measured with excitation/emission wavelengths at 400/505 nm (FLx800 fluorescence microplate reader). In addition, the collected cells were lysed by sonication. Acetylcholinesterase (AChE) activity in the supernatant was determined in 10 μg aliquots of cell extracts using the AChE activity assay kit (Sigma-Aldrich) according to the manufacture's protocol. Finally, the absorbance at 412 nm was measured using a Multiskan GO spectrophotometer (Thermo Fisher Scientific).

[2] = system: Aβ-GFP SH-SY5Y cells; assay: High content analysis of neurite outgrowth in Aβ-GFP cells; type: cell-based, Human; conditions: 5 μM
Description: On day 1, Aβ-GFP or ∆K280 tauRD-DsRed SH-SY5Y cells were plated into 24-well plates (6 × 10^4/well) followed by addition of retinoic acid. On day 2, cells were treated with coumarin-chalcone derivatives (5 or 10 μM) and with doxycycline (5 or 2 μg/ml) to induce the expression of Aβ-GFP or ∆K280 tauRD-DsRed. On day 8, 4% paraformaldehyde, 0.1% Triton X-100, and 3% BSA were used to fix, permeabilize, and block cells, respectively. Subsequently, the cells were stained with TUBB3 (neuronal class III β-tubulin) primary antibody (1 : 1000; Covance, Princeton, NJ, USA) at 4°C overnight. Goat anti-rabbit Alexa Fluor 555 secondary antibody (1 : 1000; Thermo Fisher Scientific) was then added, followed by a 3 h incubation at room temperature. Following staining nuclei with 4′,-6-diamidino-2-phenylindole (DAPI) (0.1 μg/ml; Sigma-Aldrich), the neurons were imaged by using the HCA system and analysed by using the Neurite Outgrowth Application Module (MetaXpress; Molecular Devices).
To monitor the cAMP-mediated signal transduction pathway, CRE-GFP 293 cells in 6-well plates (1 × 10^6/well) were pretreated with kinase inhibitor H-89 (LC Laboratories, Woburn, MA, USA), KN-62 (Cayman Chemical, Ann Arbor, MI, USA), U0126 (LC Laboratories), or wortmannin (LC Laboratories) (10 μM) for 4 h before forskolin or LM-021 (10 μM) addition for 5 h. GFP fluorescence/protein and total/phosphorylated PKA, CaMKII, ERK, PI3K, and CREB levels were examined. In addition, Aβ-GFP or ∆K280 tauRD-DsRed SH-SY5Y cells were treated with retinoic acid (10 μM) on day 1, followed by the addition of LM-021 (5 or 10 μM) and doxycycline (5 or 2 μg/ml) on day 2, as described. Kinase inhibitors (10 μM) were added on day 6. On day 8, the cells were collected for protein expression analysis of BDNF, BCL2 (BCL2 apoptosis regulator), and BAX (BCL2 associated X, apoptosis regulator), and total/phosphorylated PKA, CaMKII, ERK, PI3K, and CREB. Also, cells were stained with DAPI and assessed for neurite outgrowth as described above.

[3] = Mouse pharmacokinetics study and brain/plasma ratio; type: in vivo, Male Crl:CD-1 (ICR) mice; conditions: for half-life: read-out: t1/2 (elimination half-life) (converted); for AUC(0-inf): iv, 5 mg/kg
Description: Male Crl:CD-1 (ICR) mice (8 weeks old) weighing 25–30 g were housed in cages with ad libitum access to food and drinking water on a 12 : 12 h light-dark cycle. All animal experiments were performed in accordance with the guidelines approved by the Rosetta Pharmamate Institutional Animal Care and Use Committee (IACUC Approval No: AF20015). Mice were randomly divided into 7 subgroups (6 time points and 1 vehicle control; n = 3 per subgroup). LM-021 (in 5% DMSO and 19% hydroxypropyl-β-cyclodextrin) was administered intravenously (IV) at 5 mg/kg dose in volume of 10 ml/kg. Mice were euthanized in a CO2 chamber at 0.25, 0.5, 1, 2, 4, or 8 h postdose. Whole blood was collected via facial veins in heparin-coated polypropylene tubes, and plasma was obtained by centrifugation (1000 × g for 15 min at 4°C) within 60 min of collection. After cerebral vasculature perfusion through the left ventricle with normal saline for 5 min, the whole brain was quickly excised and weighed. Plasma and brain samples were rapidly frozen and stored at −70°C until analysis (see supplementary materials).
Pharmacokinetic (PK) parameters, including plasma concentration following IV dose (C0), elimination half-life (T1/2), mean residence time (MRT), and area under the concentration- (AUC-) time curve from time 0 extrapolated to infinity (AUC(0-∞)), were estimated using noncompartmental pharmacokinetic parameter analysis with Phoenix WinNonlin software (version 8.2, Pharsight Corporation, Mountain View, CA, USA). In addition, the ratio of brain/plasma was calculated from the area under the curve for brain and plasma concentrations.
Supplementary Description
Preparation and analysis of mouse plasma and brain homogenate samples. A solvent-based protein precipitation procedure was used for analyzing plasma and brain homogenate samples. A 20-μl aliquot of each plasma sample was mixed with 60 μl of acetonitrile. For brain samples, collected brains were homogenized in 3 volumes of methanol, and then 50 μl of brain homogenate was mixed with 50 μl of acetonitrile.
After vortexing and centrifugation (20,000 × g for 5 min), the extracted supernatants were collected. Liquid chromatography – tandem mass spectrometry (LC-MS/MS) analyses was performed using an Agilent 1200 (Agilent Technologies, Palo Alto, CA, USA) coupled to a QTrap 5500 triple-quadrupole mass spectrometer (AB SCIEX, Foster City, CA, USA). Chromatographic separation was performed on an Eclipse Plus C18 column (3.5 µm; 4.6 × 50 mm; Agilent Technologies) with the mobile phase performed at a constant flow rate of 1.0 ml/min using a binary solvent system: solvent A, 5 mM ammonium acetate; solvent B, acetonitrile. The transition (precursor ion to daughter ion) monitored was m/z 336.2 → 321.0 for LM-021. Multiple reaction monitoring (MRM) data were acquired, and the chromatograms were integrated using Analyst 1.6.3 software (Applied Biosystems). A weighted (1/x) linear regression was used to generate the calibration curves from standards and to calculate the sample […]
concentrations. […]

[4] = Crl:CD-1 (ICR), mouse, plasma, ICR male mice, IV 5 mg/kg

Question: For CN(C)c1ccc(/C=C/C(=O)c2c(O)c3ccccc3oc2=O)cc1 [LM-021, (E)-3-(3-(4-(dimethylamino)phenyl)acryloyl)-4-hydroxy-2H-chromen-2-one], which “Caspase 1 activity” value [1] is on record?
Answer: Its value is “reduced”.

Question: And the “Neurite length, processes, and branches” value [2]?
Answer: The value was “successfully ameliorated; also recorded: salvaged”.

Question: And the half-life ([3]; Crl:CD-1 (ICR), mouse, brain, ICR male mice, IV 5 mg/kg)?
Answer: The half-life was 2.17 ± 0.67 h.

Question: What about the C0 [3, 4] of the same compound?
Answer: The C0 was 20400 ± 9480 ng/mL.

Question: And the MRT [3, 4]?
Answer: The MRT was 3.54 ± 0.93 h.

Question: And the clearance [3, 4]?
Answer: The clearance was 1.85 ± 0.12 mL/min/kg.

Question: What about the Vd ([3]; Crl:CD-1 (ICR), mouse, plasma, ICR male mice, IV 5 mg/kg, read-out: Vss) of the same compound?
Answer: Its Vd is 0.39 ± 0.08 L/kg.

Question: What about the half-life [3, 4] of the same compound?
Answer: Its half-life is 2.54 ± 0.79 h.

Question: And the Brain/plasma ratio ([3]; calculated by the AUC(0-∞) ratios, ICR male mice, IV 5 mg/kg)?
Answer: Its Brain/plasma ratio is 0.053.

Question: What about the Kp ([3]; male, Crl:CD-1 (ICR), mouse, brain and plasma, mice, IV 5 mg/kg) of the same compound?
Answer: Its Kp is 0.053.

Question: What about the AUC(0-inf) ([3]; male, Crl:CD-1 (ICR), mouse, brain, brain (tissue density assumed 1 g/ml), ICR male mice, IV 5 mg/kg, read-out: AUC(0-∞)) of the same compound?
Answer: The AUC(0-inf) was 2380 ± 34 ng·h/mL.

Question: What about the AUC(0-inf) ([3]; male, Crl:CD-1 (ICR), mouse, brain, brain, mice, intravenous bolus 5 mg/kg, read-out: Systemic exposure (AUC0-∞)) of the same compound?
Answer: The AUC(0-inf) was 2380 ± 30 ng·h/mL.

Question: And the AUC(0-inf) ([3]; male, Crl:CD-1 (ICR), mouse, plasma, plasma, ICR male mice, IV 5 mg/kg, read-out: AUC(0-∞))?
Answer: The AUC(0-inf) was 45300 ± 2830 ng·h/mL.

Question: What about the AUC(0-inf) ([3]; male, Crl:CD-1 (ICR), mouse, plasma, plasma, mice, intravenous bolus 5 mg/kg, read-out: Systemic exposure (AUC0-∞)) of the same compound?
Answer: The AUC(0-inf) was 45300 ± 2830 ng·h/mL.

Question: And the “Plasma clearance as share of cardiac output blood flow of mice (400 ml/min/kg)” value ([3]; mice, IV 5 mg/kg)?
Answer: Its value is “about 0.5%”.
